Laboratory results taken from patent publication US20220249599A1, “TREATMENT OF IMPLANTS WITH ENGINEERED ANTIMICROBIAL AMPHIPHILIC PEPTIDES” (priority 2018, published 2022).
Values after ≈ are worked out from the molar mass of the structure shown. Values joined by “and” are separate entries in the source; they are usually repeats but may differ in a detail not shown here. Equal entries are not always repeated. Where two headings read alike, the source gives them in different places. Bridge positions count the residues as written; N and C are the ends. Square brackets hold non-standard residues; d marks the D form. Ends that are not written are not given here. Peptide text beside a SMILES is read from it. * marks the point of attachment. X1 = CC[C@H](C)CCCCC(=O)*; Dab = NCC[C@H](N)C(=O)O

How the values were obtained:
[1] = tested on: S. aureus strain SH1000 biofilms; experiment: In vitro biofilm disruption on stainless steel rods; format: cell-based; details: S. aureus SH1000, 10×MIC, up to 24 hours
Description: FIG. 15 depicts the effect of administration of SEQ ID NO:1 and cefazolin on biofilm maintenance. […] SEQ ID NO:1 eliminated mature implant biofilms on a model strain of S. aureus, SH1000.

[2] = tested on: S. aureus; experiment: Periprosthetic joint infection mouse model, implant biofilm CFU burden; format: in vivo; details: intraperitoneal delivery, versus untreated control mice
Protocol: Periprosthetic joint infection was modeled in a mouse by placing an intra-articular K-wire through the medullary canal of the proximal femur followed by intra-articular inoculation with S. aureus. Animals were treated systemically with an intraperitoneal delivery of cefazolin, rifampin, or the exemplary peptide of SEQ ID NO:1. Intraperitoneal delivery was chosen due to technical difficulties associated with intravenous delivery. Implant sonication and proximal femur homogenate were used to quantify viable bacteria.

[3] = tested on: Enterobacter spp. (n = 102); format: cell-based, Enterobacter aerogenes and E. cloacae; details: Enterobacter spp. (n = 102); for % R (isolates resistant): CLSI breakpoints, colistin EUCAST
Protocol: (§1) The clinical isolates were obtained from USA hospitals. […] Plates were incubated at 35° C. overnight.

[4] = tested on: Acinetobacter baumannii ATCC BAA-1797 (MDR); experiment: microbe, parasite or virus in culture; format: cell-based; details: Acinetobacter baumannii ATCC BAA-1797 (MDR)
Protocol: (§2) Each peptide was formulated in PBS buffer prior to testing. Peptides of SEQ ID NO:5 and SEQ ID NO:8 were brought up in 100% DMSO with 0.002% polysorbate-80 at 1.28 mg/mL (40× the highest final test concentration of 32 mcg/mL). Final test concentration of DMSO was 2.5% in the assay at the first dilution for those two compounds.
(§3) Mueller Hinton II broth (MHB II; BD; Lot Nos. 6258541 and 7143896) was used for MIC testing of aerobic organisms. 0.002% polysorbate 80 (P80) was added to the test medium.
(§4) MIC values were determined using a broth microdilution procedure described by CLSI (1, 3). Automated liquid handlers (Multidrop 384, Labsystems, Helsinki, Finland; Biomek 2000 and Biomek FX, Beckman Coulter, Fullerton Calif.) were used to conduct serial dilutions and liquid transfers.
(§5) To prepare the drug mother plates, which would provide the serial peptide dilutions for the replicate daughter plates, the wells of columns 2-12 of standard 96-well microdilution plates (Costar 3795) were filled with 150 µl of the designated diluent for each row of peptide.
(§6) The test articles and comparator compounds ([…] at 40× the highest concentration to be tested) were dispensed into the appropriate wells in column 1. The Biomek 2000 was then used to make 2-fold serial dilutions in the mother plates from column 1 through column 11. The wells of Column 12 contained no drug and served as the organism growth control wells for the assay.
(§7) The daughter plates were loaded with 185 μL per well of MHB II using the Multidrop 384. The daughter plates were completed on the Biomek FX instrument which transferred 5 uL of peptide solution from each well of a mother plate to the corresponding well of each daughter plate in a single step. A standardized inoculum of each test organism was prepared per CLSI methods. The inoculum for each organism was dispensed into sterile reservoirs divided by length (Beckman Coulter), and the Biomek 2000 was used to inoculate the plates. Daughter plates were placed on the Biomek 2000 work surface in reverse orientation so that inoculation took place from low to high drug concentration.
(§8) Plates were stacked 3-4 high, covered with a lid on the top plate, placed in plastic bags, and incubated at 35° C. for 16 to 20 hrs. Following incubation, the microplates were removed from the incubator and viewed from the bottom using a plate viewer. […] The MIC was read and recorded as the lowest concentration of peptide that inhibited visible growth of the organism.

[5] = tested on: Escherichia coli ATCC 25922 (QC); details: cited from earlier work
[6] = tested on: P. aeruginosa strains (PAO1 and 2 clinical isolates); format: cell-based; details: three P. aeruginosa strains, 0.5×MIC exposure
Description: Each antibiotic was compared for their propensity to select for bacterial resistance phenotypes in vitro.

[7] = tested on: Staphylococcus aureus NRS382 (USA100; HA-MRSA); format: cell-based; details: Staphylococcus aureus NRS382 (USA100; HA-MRSA)
Protocol: as §2, §3, §4, §5, §6, §7, §8

[8] = tested on: Pseudomonas aeruginosa ATCC 27853 (non-MDR; QC); format: cell-based; details: Pseudomonas aeruginosa ATCC 27853 (non-MDR; QC)
Protocol: as §2, §3, §4, §5, §6, §7, §8

[9] = tested on: Streptococcus agalactiae ATCC 13813; format: cell-based
Protocol: as §2, §3, §4, §5, §6, §7, §8

[10] = tested on: Escherichia coli ATCC 35218 (ESBL); format: cell-based; details: Escherichia coli ATCC 35218 (ESBL)
Protocol: as §2, §3, §4, §5, §6, §7, §8

[11] = tested on: Streptococcus pyogenes ATCC 49399; format: cell-based; details: Streptococcus pyogenes ATCC 49399
Protocol: as §2, §3, §4, §5, §6, §7, §8

[12] = tested on: Pseudomonas aeruginosa ATCC BAA-2109 (MDR); format: cell-based; details: Pseudomonas aeruginosa ATCC BAA-2109 (MDR)
Protocol: as §2, §3, §4, §5, §6, §7, §8

[13] = tested on: Enterococcus faecalis ATCC 29212 (VSE; QC); format: cell-based; details: Enterococcus faecalis ATCC 29212 (VSE; QC)
Protocol: as §2, §3, §4, §5, §6, §7, §8

[14] = tested on: Escherichia coli ATCC 25922 (QC); format: cell-based; details: Escherichia coli ATCC 25922 (QC)
Protocol: as §2, §3, §4, §5, §6, §7, §8

[15] = tested on: Staphylococcus aureus ATCC 43300 (MRSA); format: cell-based; details: Staphylococcus aureus ATCC 43300 (MRSA)
Protocol: as §2, §3, §4, §5, §6, §7, §8

[16] = tested on: Enterococcus faecium ATCC 51559 (VRE); format: cell-based; details: Enterococcus faecium ATCC 51559 (VRE)
Protocol: as §2, §3, §4, §5, §6, §7, §8

[17] = tested on: Staphylococcus aureus ATCC 29213 (MSSA; QC); format: cell-based; details: Staphylococcus aureus ATCC 29213 (MSSA; QC)
Protocol: as §2, §3, §4, §5, §6, §7, §8

[18] = tested on: Enterococcus faecalis ATCC 700802 (V583 VRE); format: cell-based; details: Enterococcus faecalis ATCC 700802 (V583 VRE)
Protocol: as §2, §3, §4, §5, §6, §7, §8

[19] = tested on: Streptococcus pneumoniae ATCC 49619 (QC); format: cell-based; details: Streptococcus pneumoniae ATCC 49619 (QC)
Protocol: as §2, §3, §4, §5, §6, §7, §8

[20] = tested on: Klebsiella pneumoniae ATCC BAA-1705 (KPC); format: cell-based; details: Klebsiella pneumoniae ATCC BAA-1705 (KPC)
Protocol: as §2, §3, §4, §5, §6, §7, §8

[21] = tested on: Acinetobacter baumannii ATCC 19606 (non-MDR); format: cell-based; details: Acinetobacter baumannii ATCC 19606 (non-MDR)
Protocol: as §2, §3, §4, §5, §6, §7, §8

[22] = tested on: Escherichia coli ATCC BAA-2471 (NDM-1); format: cell-based; details: Escherichia coli ATCC BAA-2471 (NDM-1)
Protocol: as §2, §3, §4, §5, §6, §7, §8

[23] = tested on: Acinetobacter spp. (n = 104); format: cell-based; details: Acinetobacter spp. (n = 104); for % R (isolates resistant): CLSI breakpoints
Protocol: as §1

[24] = tested on: Escherichia coli (n = 101); format: cell-based; details: Escherichia coli (n = 101); for % R (isolates resistant): CLSI breakpoints, colistin EUCAST
Protocol: as §1

[25] = tested on: Pseudomonas aeruginosa (n = 109); format: cell-based; details: Pseudomonas aeruginosa (n = 109); for % R (isolates resistant): CLSI breakpoints
Protocol: as §1

[26] = tested on: Klebsiella pneumoniae (n = 101); format: cell-based; details: Klebsiella pneumoniae (n = 101); for % R (isolates resistant): CLSI breakpoints, colistin EUCAST
Protocol: as §1

[27] = tested on: Pseudomonas aeruginosa ATCC 27853 (non-MDR; QC); details: cited from earlier work
[28] = tested on: Streptococcus pneumoniae ATCC 49619 (QC); details: cited from earlier work
[29] = tested on: Staphylococcus aureus ATCC 29213 (MSSA; QC); details: cited from earlier work
[30] = tested on: Enterococcus faecalis ATCC 29212 (VSE; QC); details: cited from earlier work
[31] = macaques, 1.0 mg/kg, 30 min IV infusion, one line per individual monkey (4000, 4001, 4002)
Protocol: Animals will be obtained from the Test Facility's colony of adult male cynomolgous monkeys (Macaca fascicularis) of Chinese origin. Animals will be weighed prior to dosing.
Intravenous administration will be via 30 minute infusion into a temporary percutaneous catheter placed into a saphenous vein. Prior to and following dose administration, the catheter will be flushed with 0.5 mL saline prior to removal. All dosing syringes will be weighed prior to and following dosing.
Serial blood samples will be collected via femoral vein (cephalic or saphenous, as necessary). Approximately 1 mL blood samples will be collected into K2EDTA tubes.
Blood samples will be collected into K2EDTA tubes and stored on wet ice. Whole blood will be processed to plasma by centrifugation (2400-2700 rpm at 5° C.) within 30 minutes of collection. Plasma samples will be split into 2 equal aliquots and stored at −80° C. until analysis.
The peptide will be purified from plasma samples from each macaque using a cation exchange-based solid-phase extraction process. Prior to extraction, a known concentration of a mass-adjusted internal standard (IS) will be added to assess recovery and allow for quantitation. Purified samples will be further subjected to high-performance liquid chromatography (HPLC) using C18 300 or 130 angstrom columns prior to MS/MS analysis. Multiple charge states will be observed by MS, so MS/MS will be employed to enable multiple reaction monitoring (MRM) analyses to determine the most MRM transitions with the highest signal-to-noise gain. Compound plasma concentrations will be determined by comparing to and compensating with co-purified IS peak intensity and validated calibrated standard curves.
Toxicokinetic parameters will be calculated using non-compartmental methods as implemented in the Phoenix® WinNonlin® ver. 6.3 comprehensive TK/PK analysis software program (Pharsight Corporation; Mountain View, Calif.) using an IV infusion model. […] Values below the lower limit of quantitation (BLQ) will be assigned a value of zero for the toxicokinetic calculations. […]

Molecule: Cc1nnc(SCC2=C(C(=O)O)N3C(=O)[C@@H](NC(=O)Cn4cnnn4)[C@H]3SC2)s1 [Cefazolin, cefazolin]
- Reduction of mature biofilm on stainless steel rods [1]: did not achieve a three-log reduction
- Reduction of implant biofilm CFU burden (sonicate culture) [2]: one log reduction in viable bacteria as compared to untreated controls, but this reduction was not statistically significant

Molecule: CC[C@H](C)CCCCC(=O)N[C@@H](CCN)C(=O)N[C@H](C(=O)N[C@@H](CCN)C(=O)N[C@H]1CCNC(=O)[C@H]([C@@H](C)O)NC(=O)[C@H](CCN)NC(=O)[C@H](CCN)NC(=O)[C@H](CC(C)C)NC(=O)[C@@H](CC(C)C)NC(=O)[C@H](CCN)NC1=O)[C@@H](C)O [Colistin, reference compound] (X1-[Dab]T[Dab][Dab][Dab][dL]L[Dab][Dab]T; lactam 4-C)
- MIC50 [3]: 0.12 µg/mL (≈ 0.103 µM)
- MIC90 [3]: 0.25 µg/mL (≈ 0.214 µM)
- Mode (MIC) [3]: 0.12 µg/mL
- % R (isolates resistant) [3]: 5.8%
- MIC [4]: 0.5 µg/mL (≈ 0.428 µM)
- MIC range in parentheses below the MIC (QC range) [5]: (0.25-2) μg/mL
- Time to development of resistance (fold MIC>10) [6]: 13 days
- MIC [7]: >32 µg/mL
- MIC [8]: 0.25 µg/mL (≈ 0.214 µM)
- MIC [9]: >32 µg/mL
- MIC [10]: 0.12 µg/mL (≈ 0.103 µM)
- MIC [11]: >32 µg/mL
- MIC [12]: 0.12 µg/mL (≈ 0.103 µM)
- MIC [13]: >32 µg/mL
- MIC [14]: 0.12 µg/mL (≈ 0.103 µM)
- MIC [15]: >32 µg/mL
- MIC [16]: >32 µg/mL
- MIC [17]: >32 µg/mL
- MIC [18]: >32 µg/mL
- MIC [19]: >32 µg/mL
- MIC [20]: 0.12 µg/mL (≈ 0.103 µM)
- MIC [21]: 0.25 µg/mL (≈ 0.214 µM)
- MIC [22]: 0.06 µg/mL (≈ 0.0513 µM)
- MIC50 [23]: 0.25 µg/mL (≈ 0.214 µM)
- MIC90 [23]: >32 µg/mL
- Mode (MIC) [23]: 0.25 µg/mL
- % R (isolates resistant) [23]: 20.2%
- MIC50 [24]: 0.12 µg/mL (≈ 0.103 µM)
- MIC90 [24]: 0.12 µg/mL (≈ 0.103 µM)
- MIC range [24]: ≤0.03 to 0.5 µg/mL
- Mode (MIC) [24]: 0.12 µg/mL
- % R (isolates resistant) [24]: 0%
- MIC50 [25]: 0.5 µg/mL (≈ 0.428 µM)
- MIC90 [25]: 1 µg/mL (≈ 0.855 µM)
- Mode (MIC) [25]: 0.5 µg/mL
- % R (isolates resistant) [25]: 7.3%
- MIC50 [26]: 0.12 µg/mL (≈ 0.103 µM)
- MIC90 [26]: 32 µg/mL (≈ 27.4 µM)
- Mode (MIC) [26]: 0.12 µg/mL
- % R (isolates resistant) [26]: 27.7%
- MIC range in parentheses below the MIC (QC range) [27]: (0.5-4) μg/mL

Molecule: C[C@@H](O)[C@H]1C(=O)N2C(C(=O)O)=C(S[C@@H]3CN[C@H](C(=O)N(C)C)C3)[C@H](C)[C@H]12 [Meropenem]
- % R (isolates resistant) [3]: 3.9%
- MIC range in parentheses below the MIC (QC range) [28]: (0.03-0.25) μg/mL
- MIC ([4]; ATCCBAA1797, read-out: MIC): > 4 µg/mL
- MIC range in parentheses below the MIC (QC range) [5]: (0.008-0.06) μg/mL
- MIC range in parentheses below the MIC (QC range) [29]: (0.03-0.12) μg/mL
- % R (isolates resistant) [23]: 65.4%
- % R (isolates resistant) [24]: 1%
- % R (isolates resistant) [25]: 20.2%
- % R (isolates resistant) ([25]; listed as meropenem): 20%
- % R (isolates resistant) [26]: 50.5%
- MIC range in parentheses below the MIC (QC range) [27]: (0.12-1) μg/mL
- MIC range in parentheses below the MIC (QC range) [30]: (2-8) μg/mL

Molecule: KKTHTKTKKTHTKTKKTHTK [SEQ ID NO: 13]
- Dose Normalized Cmax [31]: 5000 and 7000 and 6000
